Where a name gives a salt, the structure may show the parent alone.
Experiments:
Caspase 3/7 (OVCAR-4) = assay: Induction of caspase 3/7 activity (CaspaseGlo), OVCAR-4; assay type: cell-based; conditions: Homo sapiens
Procedure: (§1) Candidate compounds are tested in 384-well plates for effects on cell viability in the presence or absence of an appropriate conventional anticancer drug. Cell viability is indirectly monitored in the first instance using CellTiterGlo (Promega Corp., Madison, WI) (Table D). To determine if cell death is apoptotic, the induction of caspase activity is assessed utilizing the CaspaseGlo Assay system (Promega Corp., Madison, WI) (Table E). Cell viability is monitored 1 to 3 days after addition of compounds and conventional drugs. […] A compound of any of the formulae as disclosed herein is evaluated in combination with said anticancer drug to determine which ML-IAP antagonist can sensitize most efficaciously. Select candidate compounds are tested in 14 point drug dose response (DDR) curves in a 384-well format in order to establish potency in combination with decreasing concentrations of lung cancer relevant drug regimens. Furthermore, checker-board titrations of a conventional drug and the candidate molecules are performed to search for synergy (using ISOBOLOGRAM analysis). Compounds and combinations as described herein are also tested for cytotoxicity against normal human cells (e.g. primary fibroblasts, lymphocytes, hepatocytes, epithelial and endothelial cells) using known methods.
(§2) The induction of caspase activities was tested with a compound as disclosed in Table E. The activities are indicated according to the following legend: […]

SKOV-3 cancer cell lines = assay: SKOV-3 cell viability after treatment with 10 μM test compound; assay type: cell-based; conditions: for viability at 10 µM: Homo sapiens, SK-OV-3, 10 micromolar test compound, SKOV-3 cells
Procedure: SKOV-3 cancer cell lines were treated with a test compound, either as a pure enantiomer or a mixture of stereoisomers, at a concentration of 10 μM. Cell viability was evaluated following treatment with a compound as disclosed in Table B. Viability of cancer cells following treatment is indicated according to the following legend:
A=0-25% viability B=26-50% viability C=>50% viability

OVCAR-4 = assay: Cell viability (CellTiterGlo), OVCAR-4; assay type: cell-based; conditions: Homo sapiens
Procedure: as §1
(§3) Cell viability was evaluated following treatment with a compound as disclosed in Table D. Viability of cancer cells following treatment is indicated according to the following legend: […]

SKOV-3 = assay: Cell viability (CellTiterGlo), SKOV-3; assay type: cell-based; conditions: Homo sapiens, SK-OV-3
Procedure: as §1, §3

Caspase 3/7 (SKOV-3) = assay: Induction of caspase 3/7 activity (CaspaseGlo), SKOV-3; assay type: cell-based; conditions: Homo sapiens, SK-OV-3
Procedure: as §1, §2

[1] = In vivo PK plasma exposure in mice
Procedure: Pharmacokinetic (PK) studies are performed in vivo in mice for compounds as described herein. Standard formulations are evaluated, including hydroxypropyl methylcellulose, carboxymethylcellulose, and polyethylene glycol. For intravenous studies, compounds are administered via indwelling catheters in jugular vein and samples collected from the carotid artery. These experiments provide basic pharmacokinetic parameters including peak plasma concentration (Cmax), bioavailability (% F), exposure (AUC), half-life (t½), clearance (CL), volume of distribution (Vd), and brain levels. To measure bioavailability, a compound as described herein is administered to three animals/group, both orally (10 mg/kg) and intravenously (1 mg/kg). Intraperitoneally administration is also assessed in order to determine both brain and plasma levels of compounds.
The compounds described herein were tested in vivo in mice to measure PK plasma exposure as shown in Table F. The PK plasma values are indicated according to the following legend: […]

XIAP-BIR3 = XIAP-BIR3 (Homo sapiens (Human), UniProt P98170); assay: Fluorescence polarization (FP) assay, inhibition of SMAC peptide binding
Procedure: Compounds of the present disclosure were evaluated for potency and selectivity in a fluorescence polarization (FP) assay that measures inhibition of SMAC peptide binding to ML-IAP. To measure SMAC peptide binding, multi-well plate format FP assays based on the ability of SMAC peptides to bind the BIR domains of several IAPs are used to generate IC50 and Ki values for analogues. The FP assays utilize plasmid constructs encoding various full length IAPs or fragments for expression as either GST or His6-fusion proteins in bacteria. Compounds are evaluated for activity against several members of the IAP family, including the BIR domains of XIAP, cIAP1 and cIAP2 in order to generate selectivity profiles of the compounds disclosed herein. These assays also enable the identification and characterization of potency profiles of ML-IAP binding.
Activity of the compounds are indicated according to the following legend: […]

Caspase 9 (SKOV-3) = assay: Induction of caspase 9 activity (CaspaseGlo), SKOV-3; assay type: cell-based; conditions: Homo sapiens, SK-OV-3
Procedure: as §1, §2

Sequence of XIAP-BIR3 (P98170 241-356): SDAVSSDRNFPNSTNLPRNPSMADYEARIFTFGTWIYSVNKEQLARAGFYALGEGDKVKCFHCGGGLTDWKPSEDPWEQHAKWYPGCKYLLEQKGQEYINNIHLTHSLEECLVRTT

| Structure (SMILES) | EC50 (Caspase 3/7 (OVCAR-4)) [nM] | viability at 10 µM (SKOV-3 cancer cell lines) [%] | IC50 (OVCAR-4) [nM] | IC50 (SKOV-3) [nM] | EC50 (Caspase 3/7 (SKOV-3)) [nM] | PK plasma exposure at 1 h (IP, 10 mg/kg) [1] | Ki (XIAP-BIR3) [nM] | EC50 (Caspase 9 (SKOV-3)) [nM] | % viability after treatment with 10 micromolar of test compound (SKOV-3 cells) (SKOV-3 cancer cell lines; 10 micromolar test compound, hydrochloride) |
| --- | --- | --- | --- | --- | --- | --- | --- | --- | --- |
| CN[C@@H](C)C(=O)N[C@H]1CCOC2CC3(CCCC3)C(C(=O)N[C@@H]3CCCc4ccccc43)N2C1=O (stereo partly drawn) [Compound 82, (4'S)-4′-((S)-2-(methylamino)propanamido)-5′-oxo-N—((R)-1,2,3,4-tetrahydronaphthalen-1-yl)hexahydro-7′H-spiro[cyclopentane-1,8′-pyrrolo[2,1-b][1,3]oxazepine]-7′-carboxamide hydrochloride] | 1 to 10 | 0 to 25 | 1 to 10 | 1 to 10 | 1 to 10 | iv (iv=>1000 nM) | 10 to 100 | 1 to 10 |  |
| CN[C@@H](C)C(=O)N[C@H]1CCOC2CC3(CC=CC3)C(C(=O)N[C@@H]3CCCc4ccccc43)N2C1=O (stereo partly drawn) [Compound 81, (4'S)-4′-((S)-2-(methylamino)propanamido)-5′-oxo-N—((R)-1,2,3,4-tetrahydronaphthalen-1-yl)-2′,3′,4′,5′,9′,9a′-hexahydro-7′H-spiro[cyclopentane-1,8′-pyrrolo[2,1-b][1,3]oxazepin]-3-ene-7′-carboxamide hydrochloride] | 1 to 10 | 0 to 25 | 10 to 100 | 1 to 10 | 1 to 10 | iii (iii=500-1000 nM) | 10 to 100 | 1 to 10 |  |
| CN[C@@H](C)C(=O)N[C@@H]1C(=O)N2[C@H](CC(C)(C)[C@H]2C(=O)N[C@@H]2CCCc3ccccc32)OC2CCCCC21 (single isomer, unassigned) [Compound 65, hydrochloride] | 1 to 10 | 0 to 25 | 10 to 100 | 10 to 100 | 1 to 10 | iii (iii=500-1000 nM) | 10 to 100 | 1 to 10 |  |
| CCC1C[C@@H]2SCC[C@H](NC(=O)[C@H](C)NC)C(=O)N2[C@@H]1C(=O)N[C@@H]1CCCc2ccccc21 (stereo partly shown) [Compound 36, hydrochloride] |  | 26 to 50 | 100 to 1000 | 10 to 100 |  |  |  |  |  |
| CN[C@@H](C)C(=O)N[C@H]1CCO[C@H]2CC(C)(C)[C@@H](CN[C@@H]3CCCc4ccccc43)N2C1=O [Compound 56, (S)—N-((4S,7S,9aS)-8,8-dimethyl-5-oxo-7-((((R)-1,2,3,4-tetrahydronaphthalen-1-yl)amino)methyl)octahydropyrrolo[2,1-b][1,3]oxazepin-4-yl)-2-(methylamino)propanamide dihydrochloride] |  | > 50 | > 1000 | > 1000 |  |  |  |  |  |
| CC[C@H](NC)C(=O)N[C@H]1CCS[C@H]2CC(C)(C)[C@@H](C(=O)N[C@@H]3CCCc4ccccc43)N2C1=O.Cl [Compound 79, (4S,7S,9aS)-8,8-dimethyl-4-((S)-2-(methylamino)butanamido)-5-oxo-N—((R)-1,2,3,4-tetrahydronaphthalen-1-yl)octahydropyrrolo[2,1-b][1,3]thiazepine-7-carboxamide hydrochloride] | 1 to 10 | 0 to 25 | 10 to 100 | 1 to 10 | 1 to 10 | iii (iii=500-1000 nM) |  | 1 to 10 |  |
| CN[C@@H](C)C(=O)N[C@H]1CCS(=O)(=O)[C@H]2CC(C)(C)[C@@H](C(=O)N[C@@H]3CCCc4ccccc43)N2C1=O [Compound 1, (4S,7S,9aS)-8,8-dimethyl-4-((S)-2-(methylamino)propanamido)-5-oxo-N—((R)-1,2,3,4-tetrahydronaphthalen-1-yl)octahydropyrrolo[2,1-b][1,3]thiazepine-7-carboxamide 1,1-dioxide hydrochloride] |  | > 50 | > 1000 | > 1000 |  |  |  |  |  |
| CN[C@@H](C)C(=O)N[C@H]1CCO[C@H]2CC(C)(C)[C@@H](C(=O)NCCC(C)C)N2C1=O [Compound 70, (4S,7S,9aS)—N-isopentyl-8,8-dimethyl-4-((S)-2-(methylamino)propanamido)-5-oxooctahydropyrrolo[2,1-b][1,3]oxazepine-7-carboxamide hydrochloride] |  | > 50 | > 1000 | > 1000 |  |  |  |  |  |
| CN[C@@H](C)C(=O)N[C@H]1CCOC2CC(C)(C)[C@@H](C(=O)Nc3ccccc3-c3ncccn3)N2C1=O (stereo partly drawn) [Compound 55, (4S,7S)-8,8-dimethyl-4-((S)-2-(methylamino)propanamido)-5-oxo-N-(2-(pyrimidin-2-yl)phenyl)octahydropyrrolo[2,1-b][1,3]oxazepine-7-carboxamide hydrochloride] |  | > 50 | > 1000 | > 1000 |  |  |  |  |  |
| C=CCC1(CC=C)C[C@@H]2OCC[C@H](NC(=O)[C@H](C)NC)C(=O)N2[C@@H]1C(=O)N[C@@H]1CCCc2ccccc21 [Compound 14, (4S,9aS)-8,8-diallyl-4-((S)-2-(methylamino)propanamido)-5-oxo-N—((R)-1,2,3,4-tetrahydronaphthalen-1-yl)octahydropyrrolo[2,1-b][1,3]oxazepine-7-carboxamide hydrochloride] |  | 0 to 25 | 100 to 1000 | 100 to 1000 |  |  |  |  |  |
| CN[C@@H](C)C(=O)N[C@H]1Cc2ccc(OC)cc2[C@H]2CC(C)(C)[C@@H](C(=O)N[C@@H]3CCCc4ccccc43)N2C1=O [Compound 11, (6S,11bR)-10-methoxy-2,2-dimethyl-6-((S)-2-(methylamino)propanamido)-5-oxo-N—((R)-1,2,3,4-tetrahydronaphthalen-1-yl)-2,3,5,6,7,11b-hexahydro-1H-benzo[c]pyrrolo[1,2-a]azepine-3-carboxamide hydrochloride] |  | 26 to 50 | > 1000 | > 1000 |  |  |  |  |  |
| CN[C@@H](C)C(=O)N[C@H]1Cc2cc(OC)ccc2[C@H]2CC(C)(C)[C@@H](C(=O)N[C@@H]3CCCc4ccccc43)N2C1=O [Compound 9, (6S,11bR)-9-methoxy-2,2-dimethyl-6-((S)-2-(methylamino)propanamido)-5-oxo-N—((R)-1,2,3,4-tetrahydronaphthalen-1-yl)-2,3,5,6,7,11b-hexahydro-1H-benzo[c]pyrrolo[1,2-a]azepine-3-carboxamide hydrochloride] |  | 0 to 25 | 100 to 1000 | 100 to 1000 |  |  |  |  |  |
| CN[C@@H](C)C(=O)N[C@H]1CCS[C@H]2CC(C(C)C)(C(C)C)[C@@H](C(=O)N[C@@H]3CCCc4ccccc43)N2C1=O [Compound 41, 4S,9aS)-8,8-diisopropyl-4-((S)-2-(methylamino)propanamido)-5-oxo-N—((R)-1,2,3,4-tetrahydronaphthalen-1-yl)octahydropyrrolo[2,1-b][1,3]thiazepine-7-carboxamide hydrochloride] |  |  | > 1000 | > 1000 |  |  |  |  | A (A=0-25% viability) |
| CN[C@@H](C)C(=O)N[C@H]1CC(CSc2ccccc2)O[C@H]2CC(C)(C)C(C(=O)N[C@@H]3CCCc4ccccc43)N2C1=O (mixture of isomers) [Compound 75, rac-(4R)-8,8-dimethyl-4-((R)-2-(methylamino)propanamido)-5-oxo-2-((phenylthio)methyl)-N—((S)-1,2,3,4-tetrahydronaphthalen-1-yl)octahydropyrrolo[2,1-b][1,3]oxazepine-7-carboxamide hydrochloride] |  | 0 to 25 | 10 to 100 | 10 to 100 |  |  |  |  |  |

— patent US20230295181A1, “INHIBITOR OF APOPTOSIS (IAP) PROTEIN ANTAGONISTS” (Sanford Burnham Prebys Medical Discovery Institute, priority 2020, published 2023)
